Measured values taken from PubChem BioAssay (NCI).
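All cell lines were grown in 96-well plates and treated with compound for 48 hours. The concentration for 50% growth inhibition is given as GI50. TGI denotes the concentration required for complete inhibition of growth.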

Assays:
Experiment in all cases: DTP human tumour cell line panel, 48 h
786-0 renal = system: 786-0 renal
A498 renal = system: A498 renal
A549 NSCLC = system: A549 NSCLC
ACHN renal = system: ACHN renal
BT-549 breast = system: BT-549 breast
CAKI-1 renal = system: CAKI-1 renal
CCRF-CEM leukemia = system: CCRF-CEM leukemia
COLO 205 colon = system: COLO 205 colon
DU-145 prostate = system: DU-145 prostate
EKVX NSCLC = system: EKVX NSCLC
HCC-2998 colon = system: HCC-2998 colon
HCT-116 colon = system: HCT-116 colon
HCT-15 colon = system: HCT-15 colon
HL-60(TB) leukemia = system: HL-60(TB) leukemia
HOP-62 NSCLC = system: HOP-62 NSCLC
HOP-92 NSCLC = system: HOP-92 NSCLC
HS 578T breast = system: HS 578T breast
HT29 colon = system: HT29 colon
IGROV1 ovarian = system: IGROV1 ovarian
K-562 leukemia = system: K-562 leukemia
KM12 colon = system: KM12 colon
LOX IMVI melanoma = system: LOX IMVI melanoma
M14 melanoma = system: M14 melanoma
MALME-3M melanoma = system: MALME-3M melanoma
MCF7 breast = system: MCF7 breast
MDA-MB-231 breast = system: MDA-MB-231 breast
MDA-MB-435 = system: MDA-MB-435
MDA-MB-468 breast = system: MDA-MB-468 breast
MOLT-4 leukemia = system: MOLT-4 leukemia
NCI-H226 lung = system: NCI-H226 lung
NCI-H23 lung = system: NCI-H23 lung
NCI-H460 lung = system: NCI-H460 lung
NCI-H522 lung = system: NCI-H522 lung
OVCAR-3 ovarian = system: OVCAR-3 ovarian
OVCAR-4 ovarian = system: OVCAR-4 ovarian
OVCAR-5 ovarian = system: OVCAR-5 ovarian
OVCAR-8 ovarian = system: OVCAR-8 ovarian
PC-3 prostate = system: PC-3 prostate
RPMI-8226 leukemia = system: RPMI-8226 leukemia
RXF 393 renal = system: RXF 393 renal
SF-268 CNS = system: SF-268 CNS
SF-295 CNS = system: SF-295 CNS
SF-539 CNS = system: SF-539 CNS
SK-MEL-2 melanoma = system: SK-MEL-2 melanoma
SK-MEL-28 melanoma = system: SK-MEL-28 melanoma
SK-MEL-5 melanoma = system: SK-MEL-5 melanoma
SK-OV-3 ovarian = system: SK-OV-3 ovarian
SN12C renal = system: SN12C renal
SNB-19 CNS = system: SNB-19 CNS
SNB-75 CNS = system: SNB-75 CNS
SR leukemia = system: SR leukemia
SW-620 colon = system: SW-620 colon
T-47D breast = system: T-47D breast
TK-10 renal = system: TK-10 renal
U251 CNS = system: U251 CNS
UACC-257 melanoma = system: UACC-257 melanoma
UACC-62 melanoma = system: UACC-62 melanoma
UO-31 renal = system: UO-31 renal

Structure (SMILES): O=C1Nc2ccc(F)cc2/C1=C/c1cccc(OCc2ccccc2)c1
- GI50 (786-0 renal): 14.5 µM
- TGI (786-0 renal): 29.5 µM
- GI50 (A498 renal): 29.7 µM
- TGI (A498 renal): > 100 µM
- GI50 (A549 NSCLC): 18.6 µM
- TGI (A549 NSCLC): 75 µM
- GI50 (ACHN renal): 13.5 µM
- TGI (ACHN renal): 26.5 µM
- GI50 (BT-549 breast): 10.5 µM
- TGI (BT-549 breast): 23.4 µM
- GI50 (CAKI-1 renal): 8.46 µM
- TGI (CAKI-1 renal): 21.7 µM
- GI50 (CCRF-CEM leukemia): 12.4 µM
- TGI (CCRF-CEM leukemia): 35.2 µM
- GI50 (COLO 205 colon): 17.8 µM
- TGI (COLO 205 colon): 35.5 µM
- GI50 (DU-145 prostate): 14.8 µM
- TGI (DU-145 prostate): 31.4 µM
- GI50 (EKVX NSCLC): 12.8 µM
- TGI (EKVX NSCLC): 27.8 µM
- GI50 (HCC-2998 colon): 16.3 µM
- TGI (HCC-2998 colon): 31.7 µM
- GI50 (HCT-116 colon): 10.5 µM
- TGI (HCT-116 colon): 25.9 µM
- GI50 (HCT-15 colon): 11.9 µM
- TGI (HCT-15 colon): 29.3 µM
- GI50 (HL-60(TB) leukemia): 11.7 µM
- TGI (HL-60(TB) leukemia): 34.1 µM
- GI50 (HOP-62 NSCLC): 16.2 µM
- TGI (HOP-62 NSCLC): 37.1 µM
- GI50 (HOP-92 NSCLC): 3.76 µM
- TGI (HOP-92 NSCLC): 17.1 µM
- GI50 (HS 578T breast): 15.4 µM
- TGI (HS 578T breast): 57.9 µM
- GI50 (HT29 colon): 17.8 µM
- TGI (HT29 colon): 35.4 µM
- GI50 (IGROV1 ovarian): 13.4 µM
- TGI (IGROV1 ovarian): 27.1 µM
- GI50 (K-562 leukemia): 10.5 µM
- TGI (K-562 leukemia): 31.8 µM
- GI50 (KM12 colon): 13.7 µM
- TGI (KM12 colon): 32.4 µM
- GI50 (LOX IMVI melanoma): 8.51 µM
- TGI (LOX IMVI melanoma): 28.7 µM
- GI50 (M14 melanoma): 14.9 µM
- TGI (M14 melanoma): 31.5 µM
- GI50 (MALME-3M melanoma): 15.5 µM
- TGI (MALME-3M melanoma): 29 µM
- GI50 (MCF7 breast): 5.44 µM
- TGI (MCF7 breast): 21.8 µM
- GI50 (MDA-MB-231 breast): 13.8 µM
- TGI (MDA-MB-231 breast): 29.2 µM
- GI50 (MDA-MB-435): 15.1 µM
- TGI (MDA-MB-435): 29 µM
- GI50 (MDA-MB-468 breast): 10.8 µM
- TGI (MDA-MB-468 breast): 23.6 µM
- GI50 (MOLT-4 leukemia): 6.85 µM
- TGI (MOLT-4 leukemia): 30.2 µM
- GI50 (NCI-H226 lung): 12.5 µM
- TGI (NCI-H226 lung): 27.1 µM
- GI50 (NCI-H23 lung): 11.7 µM
- TGI (NCI-H23 lung): 27.5 µM
- GI50 (NCI-H460 lung): 14.1 µM
- TGI (NCI-H460 lung): 28.7 µM
- GI50 (NCI-H522 lung): 12.4 µM
- TGI (NCI-H522 lung): 27.3 µM
- GI50 (OVCAR-3 ovarian): 11.8 µM
- TGI (OVCAR-3 ovarian): 24.7 µM
- GI50 (OVCAR-4 ovarian): 9.89 µM
- TGI (OVCAR-4 ovarian): 30.2 µM
- GI50 (OVCAR-5 ovarian): 16.5 µM
- TGI (OVCAR-5 ovarian): 30.6 µM
- GI50 (OVCAR-8 ovarian): 20.1 µM
- TGI (OVCAR-8 ovarian): 57.8 µM
- GI50 (PC-3 prostate): 13.8 µM
- TGI (PC-3 prostate): 30.3 µM
- GI50 (RPMI-8226 leukemia): 10.7 µM
- TGI (RPMI-8226 leukemia): 30.7 µM
- GI50 (RXF 393 renal): 13.7 µM
- TGI (RXF 393 renal): 29.8 µM
- GI50 (SF-268 CNS): 14 µM
- TGI (SF-268 CNS): 34.2 µM
- GI50 (SF-295 CNS): 15.2 µM
- TGI (SF-295 CNS): 34.2 µM
- GI50 (SF-539 CNS): 14.8 µM
- TGI (SF-539 CNS): 28.1 µM
- GI50 (SK-MEL-2 melanoma): 12.9 µM
- TGI (SK-MEL-2 melanoma): 27.8 µM
- GI50 (SK-MEL-28 melanoma): 16 µM
- TGI (SK-MEL-28 melanoma): 30.1 µM
- GI50 (SK-MEL-5 melanoma): 15.8 µM
- TGI (SK-MEL-5 melanoma): 29.8 µM
- GI50 (SK-OV-3 ovarian): 16.7 µM
- TGI (SK-OV-3 ovarian): 39.4 µM
- GI50 (SN12C renal): 13.4 µM
- TGI (SN12C renal): 26.8 µM
- GI50 (SNB-19 CNS): 14.2 µM
- TGI (SNB-19 CNS): 29.2 µM
- GI50 (SNB-75 CNS): 14.7 µM
- TGI (SNB-75 CNS): 43.3 µM
- GI50 (SR leukemia): 4.83 µM
- TGI (SR leukemia): 23.1 µM
- GI50 (SW-620 colon): 15.1 µM
- TGI (SW-620 colon): 29.4 µM
- GI50 (T-47D breast): 12.1 µM
- TGI (T-47D breast): 62 µM
- GI50 (TK-10 renal): 19.6 µM
- TGI (TK-10 renal): 41.9 µM
- GI50 (U251 CNS): 12.6 µM
- TGI (U251 CNS): 32.6 µM
- GI50 (UACC-257 melanoma): 16.8 µM
- TGI (UACC-257 melanoma): 36.2 µM
- GI50 (UACC-62 melanoma): 10.4 µM
- TGI (UACC-62 melanoma): 22.5 µM
- GI50 (UO-31 renal): 10 µM
- TGI (UO-31 renal): 21.7 µM
